Experimental data as given in article PMC2912373, “Low-Density Lipoprotein Receptor-Related Protein 1 (LRP1) Mediates Neuronal Aβ42 Uptake and Lysosomal Trafficking” (PLoS ONE, 2010).

System: N2a-pcDNA3 cells
Assay: Binding/endocytosis of FAM-Aβ42, confocal microscopy
Type: cell-based, mouse
Settings: 5 µM bound 1 h at 4°C, 37°C for 8 h
Description: To test whether the endocytic activity of LRP1 mediates the uptake of Aβ42 and its accumulation within neurons, we analyzed the uptake of fluorescently labeled Aβ42 in control N2a cells and in N2a cells that overexpress a LRP1 minireceptor, mLRP4. This minireceptor contains the fourth ligand-binding domain of LRP1 and is capable of binding several LRP1 ligands with endocytic properties identical to the full-length LRP1 [35]. We generated stable N2a-mLRP4 and N2a-pcDNA3 cell lines and characterized them for total mLRP4 expression levels by Western blot and FACS (Fig. 1). […] To determine if mLRP4 reached the plasma membrane after synthesis, we analyzed cell surface levels of mLRP4 by FACS in non-permeabilized cells. […] To quantify the amount of internalized RAP, we performed FACS analysis of similarly treated cultures. […] Cells were then warmed to 37°C for different periods of time to allow ligand internalization, and analyzed by confocal microscopy as described in the Experimental Procedures section. […]
Figure 1 LRP1 minireceptor increases the uptake of Aβ42 in N2a-mLRP4 cells. A, cell lysates from N2a cells stably expressing LRP1 minireceptor (N2a-mLRP4) or empty pcDNA3 vector (N2a-pcDNA3) were analyzed by 7.5% SDS-PAGE and Western blotted with anti-HA or anti-LRP1 antibodies. […]

## FAM-Aβ42: FAM-Aβ42 peptide (23526) from Anaspec; amyloid-β 42 with carboxyfluorescein at the N-terminal region
  Aβ42 accumulated after 8 h of warming: small amount
